For the experiment, the target named is T1, SGK (SGK1) (Homo sapiens, UniProt O00141).
T1 construct: purchased Thermo Fisher Scientific (Life Technologies) SelectScreen
Kind of experiment: SelectScreen Z'LYTE. It counts as biochemical. The method, boiled down: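 Percent values come from Thermo SelectScreen profiling of NU5455, combining activity and binding assays. CSF1R was run in Z'LYTE format at Km app ATP, and CAMK1 in Adapta format with ATP listed at 10.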

The term inhibition denotes the change of the read-out against control, counted positive when it falls. High values mean strong suppression, low ones little suppression.

Molecules are shown by their SMILES.

T1 sequence (O00141 whole entry): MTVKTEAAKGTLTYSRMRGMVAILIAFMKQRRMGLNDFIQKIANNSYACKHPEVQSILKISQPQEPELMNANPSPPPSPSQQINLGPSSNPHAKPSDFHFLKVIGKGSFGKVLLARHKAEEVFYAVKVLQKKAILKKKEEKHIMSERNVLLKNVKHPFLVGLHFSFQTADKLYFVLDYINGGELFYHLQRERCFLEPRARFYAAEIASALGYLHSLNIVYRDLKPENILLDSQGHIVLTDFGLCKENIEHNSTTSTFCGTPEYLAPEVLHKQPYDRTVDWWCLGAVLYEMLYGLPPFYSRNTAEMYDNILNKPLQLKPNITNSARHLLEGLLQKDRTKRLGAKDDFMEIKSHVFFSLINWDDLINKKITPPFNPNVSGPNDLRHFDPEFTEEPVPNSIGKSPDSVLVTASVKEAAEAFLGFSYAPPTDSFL

In the case of `CN(C(=O)CN1CCOCC1)c1ccc2sc3c(-c4cccc5c(=O)cc(N6CC7CCC(C6)O7)oc45)cccc3c2c1` [NU5455], the inhibition at 1 µM was determined as 8.5%.

The values above are taken from PMC6934184, “Selective DNA-PKcs inhibition extends the therapeutic index of localized radiotherapy and chemotherapy” (The Journal of Clinical Investigation, 2019).
